Literature values, collected in paper PMC12785453, “Oral Fluid Concentrations and Pharmacological Effects of Clephedrone and Methylone in Humans” (International Journal of Molecular Sciences, 2025).
Values joined by “and” are separate entries in the source; they are usually repeats but may differ in a detail not shown here. Equal entries are not always repeated.

Columns and labels:
humans = conditions: mephedrone, previous studies; cited from earlier work
[1] = cited from earlier work

CNC(C)C(=O)c1ccc(C)cc1 (stereo not shown) [mephedrone, 4-methylmethcathinone]
Effects returned to baseline after (humans): 2 to 3 h
Time of peak effects (humans): 0.75 h and 0.75 to 1 h
Tmax in oral fluid [1]: 2 h
Tmax in plasma [1]: 1.25 h
